Experimental data published in patent US20120190666A1, “Heteroaryl Compounds as PIKK Inhibitors” (Amgen Inc., priority 2009, published 2012).
pIC50: −log10 of the molar value.

System: phosphorylation of Akt at Serine 473 in U87 MG cells
Test: pAkt AlphaScreen (U87 cell)
Type: cell-based
Settings: Homo sapiens, U-87 MG, 2 h; pAkt at Serine 473, U87 MG cells, two hours with compound
Experimental: The pAkt AlphaScreen® assay (PerkinElmer, Waltham, Mass.) determines whether there is phosphorylation of Akt at Serine 473 by recruitment of a phosphospecific antibody. This assay was performed using U87 MG cells. The U87 growth media consists of MEM (Gibco, Carlsbad, Calif.) supplemented with 10% FBS (Gibco), 1× Non-Essential Amino Acids (Gibco,) and 1× Penicillin/Streptomycin/Glutamine (Gibco). The cells were maintained weekly using 0.05% Trypsin (Gibco) and replated in 150 mm TC— Treated Culture Dishes (Corning, Corning, N.Y.).
The first day of the assay, the adherent cells were trypsinized, media was added to the loose cells and cells were mixed to a homogenous mixture. 0.5 ml of the homogenous mixture was counted on the Beckman Coulter® Vi-Cell™ XR (Fullerton, Calif.). 50 frames of cells were counted and the number of viable cells was determined. The cells were then diluted to 0.25 million cells per ml, and centrifuged at 200 rcf for 5 minutes. The media was removed and the cells were reconstituted in fresh media for plating. The cells were plated at 20 μl per well on the PerkinElmer® FlexDrop PLUS in Low Volume 384 Well White Tissue Culture Plates (Corning) with a final cell density of 5K cells per well. The plates were incubated overnight at 37° Celsius, 5% CO2.
On the second day, the compound plates were prepared, the cells were treated with compound and the pAkt reaction mix was added to the cell lysate. 384 well compound plates were prepared containing 1 μl of compound per well starting at 5 mM and diluted 1:2 across the row, resulting in a 22 well serial dilution. 39 μl of growth media was added to the compound plate in rows 1-22 using the PerkinElmer® FlexDrop PLUS resulting in a DMSO concentration of 2.5%. The cell plates and diluted compound plates were put onto the VELOCITY11™ VPREP™ 384 ST where the compound plate was mixed and 5 μl of serially diluted compound or controls was added to the cell plate. The final concentration of the compounds was 25 μM serially diluted to 11.9 pM in 0.5% DMSO.
The cell plates were then incubated with compound for two hours at 37° C., 5% CO2. After two hours, the media in the cell plates was aspirated using the BioTek® ELx405HT plate washer (Winooski, Vt.) removing the majority of media and compound without disturbing the adherent U87 cells. The following assay reagents are components of the SureFire® Akt (Ser 473) Phosphorylation 50K Point Kit (TGR BioSciences, Adelaide, Austalia) and an IgG Detection Kit (PerkinElmer, Waltham, Mass.). 5 μl of 1× Lysis Buffer was added to each well using the PerkinElmer® FlexDrop PLUS. The plates were then incubated at room temperature on a shaker for ten minutes. The AlphaScreen® reaction was prepared under low light conditions (subdued or green light) including p-Aid (Ser 473) Reaction Buffer, Dilution Buffer, Activation Buffer, Acceptor Beads and Donor Beads at a ratio of 40:20:10:1:1 respectively. The AlphaScreen® reaction was added to the cell lysate at 6 μl per well using the PerkinElmer® FlexDrop PLUS. The plates were placed in a humid environment to reduce edge effects and incubated overnight at room temperature with restricted air flow in the dark.
On the final day of the experiment, the plates were read on the PerkinElmer® EnVision™ 2103 Multilable Reader using the standard AlphaScreen® readout. The POC is calculated and the data is analyzed to report the IC50 IP for pAkt at Serine 473.
Activity data for the compounds tested in the PI3K cell based Akt assay is provided in Table 1 under the column heading U87

Structure (SMILES) | pIC50
Cc1nc(N)nc(-c2c(Nc3cc[nH]n3)nc3ccccn23)n1 [Cpd 1, 3-(4-amino-6-methyl-1,3,5-triazin-2-yl)-N-(1H-pyrazol-3-yl)imidazo[1,2-a]pyridin-2-amine] | 7.70
Cc1nc(-c2c(Nc3cccc(O)c3)nc3ccccn23)c2nc[nH]c2n1 [Cpd 2] | 7.30
CNc1nc(C)nc(-c2c(Nc3cc[nH]n3)nc3ccccn23)n1 [Cpd 3, 3-(4-methyl-6-(methylamino)-1,3,5-triazin-2-yl)-N-(1H-pyrazol-3-yl)imidazo[1,2-a]pyridin-2-amine] | 7.30
Cc1nc(N)cc(-c2c(Nc3cc[nH]n3)nc3cccnn23)n1 [Cpd 7, 3-(6-amino-2-methylpyrimidin-4-yl)-N-(1H-pyrazol-3-yl)imidazo[1,2-b]pyridazin-2-amine] | 7.70
Cc1nc(N)cc(-n2nc(C(=O)Nc3cccnc3)cc2Nc2ccn[nH]2)n1 [Cpd 11, 5-(1H-pyrazol-5-ylamino)-1-(6-amino-2-methylpyrimidin-4-yl)-N-(pyridin-3-yl)-1H-pyrazole-3-carboxamide] | 6.22
Cc1nc(N)cc(-n2nc(C(=O)N3CCOCC3)cc2Nc2ccn[nH]2)n1 [Cpd 13, (5-(1H-pyrazol-5-ylamino)-1-(6-amino-2-methylpyrimidin-4-yl)-1H-pyrazol-3-yl)(morpholino)methanone] | 6.55
CNC(=O)c1cc(Nc2ccn[nH]2)n(-c2cc(N)nc(C)n2)n1 [Cpd 14, 5-(1H-pyrazol-5-ylamino)-1-(6-amino-2-methylpyrimidin-4-yl)-N-methyl-1H-pyrazole-3-carboxamide] | 6.36
CCOC(=O)c1cc(Nc2cc[nH]n2)n(-c2cc(N)nc(C)n2)n1 [Cpd 15, ethyl 5-(1H-pyrazol-3-ylamino)-1-(6-amino-2-methylpyrimidin-4-yl)-1H-pyrazole-3-carboxylate] | 6.96
Cc1nc(N)cc(-n2nc(C(=O)NC3CC3)cc2Nc2cc[nH]n2)n1 [Cpd 16, 5-(1H-pyrazol-5-ylamino)-1-(6-amino-2-methylpyrimidin-4-yl)-N-cyclopropyl-1H-pyrazole-3-carboxamide] | 6.46
Cc1cc(Nc2cc[nH]n2)n(-c2cc(N)nc(C)n2)n1 [Cpd 18, 6-(5-(1H-pyrazol-3-ylamino)-3-methyl-1H-pyrazol-1-yl)-2-methylpyrimidin-4-amine] | 6.15
COc1ccc(Nc2cc(C)nn2-c2cc(N)nc(C)n2)cn1 [Cpd 24, 6-(5-(6-methoxypyridin-3-ylamino)-3-methyl-1H-pyrazol-1-yl)-2-methylpyrimidin-4-amine] | 6.06
Cc1nc(Nc2ccccc2F)cc(-c2c(Nc3cc[nH]n3)nc3cccnn23)n1 [Cpd 31, 3-(6-((2-fluorophenyl)amino)-2-methyl-4-pyrimidinyl)-N-1H-pyrazol-3-ylimidazo[1,2-b]pyridazin-2-amine] | 6.10
COc1ccc(Nc2cc(-c3c(Nc4cc[nH]n4)nc4cccnn34)nc(C)n2)cc1 [Cpd 33] | 6.54
Cc1nc(Nc2cccnn2)cc(-c2c(Nc3ccn(C)n3)nc3cccnn23)n1 [Cpd 34, N-(1-methyl-1H-pyrazol-3-yl)-3-(2-methyl-6-(3-pyridazinylamino)-4-pyrimidinyl)imidazo[1,2-b]pyridazin-2-amine] | 7.22
Cc1nc(Nc2ccc(N3CCN(C)CC3)nn2)cc(-c2c(Nc3cc[nH]n3)nc3cccnn23)n1 [Cpd 35, 3-(2-methyl-6-((6-(4-methyl-1-piperazinyl)-3-pyridazinyl)amino)-4-pyrimidinyl)-N-1H-pyrazol-3-ylimidazo[1,2-b]pyridazin-2-amine] | 7.15
CCNC(=O)Nc1ccc(Nc2nc3ccccn3c2-c2cc(N)nc(C)n2)cc1 [Cpd 40, 1-(4-((3-(6-amino-2-methyl-4-pyrimidinyl)imidazo[1,2-a]pyridin-2-yl)amino)phenyl)-3-ethylurea] | 7.22

Structure (SMILES) | pIC50
Cc1nc(N)cc(-c2c(Nc3ccc4cc[nH]c4n3)nc3ccccn23)n1 [Cpd 41, 3-(6-amino-2-methyl-4-pyrimidinyl)-N-1H-pyrrolo[2,3-b]pyridin-6-ylimidazo[1,2-a]pyridin-2-amine] | 6.40
Cc1nc(Nc2ccc(N3CCOCC3)nn2)cc(-c2c(Nc3cc[nH]n3)nc3ccccn23)n1 [Cpd 49, 3-(2-methyl-6-((6-(4-morpholinyl)-3-pyridazinyl)amino)-4-pyrimidinyl)-N-1H-pyrazol-3-ylimidazo[1,2-a]pyridin-2-amine] | 7.22
COCCOc1cnnc(Nc2cc(-c3c(Nc4ccc(NC(C)=O)cc4)nc4cccnn34)nc(C)n2)c1 [Cpd 53, N-(4-((3-(6-((5-(2-methoxyethoxy)-3-pyridazinyl)amino)-2-methyl-4-pyrimidinyl)imidazo[1,2-b]pyridazin-2-yl)amino)phenyl)acetamide] | 8.00
Cc1nc(N)cc(-c2c(Nc3ccc(NC(=O)Nc4ccncc4)cc3)nc3ccccn23)n1 [Cpd 57, 1-(4-((3-(6-amino-2-methyl-4-pyrimidinyl)imidazo[1,2-a]pyridin-2-yl)amino)phenyl)-3-(4-pyridinyl)urea] | 7.15
Cc1nc(Nc2cc(OCC(F)(F)F)cnn2)cc(-c2c(Nc3cc[nH]n3)nc3cccnn23)n1 [Cpd 60, 3-(2-methyl-6-((5-(2,2,2-trifluoroethoxy)-3-pyridazinyl)amino)-4-pyrimidinyl)-N-1H-pyrazol-3-ylimidazo[1,2-b]pyridazin-2-amine] | 7.70
CC(=O)Nc1cc(-c2c(Nc3ccn(C)n3)nc3c(F)cccn23)nc(C)n1 [Cpd 63, N-(6-(8-fluoro-2-((1-methyl-1H-pyrazol-3-yl)amino)imidazo[1,2-a]pyridin-3-yl)-2-methyl-4-pyrimidinyl)acetamide] | 7.30
Cc1nc(N)cc(-c2c(Nc3ccn(C)n3)nc3ccc(-c4cccc(S(C)(=O)=O)c4)cn23)n1 [Cpd 65, 3-(6-amino-2-methyl-4-pyrimidinyl)-N-(1-methyl-1H-pyrazol-3-yl)-6-(3-(methylsulfonyl)phenyl)imidazo[1,2-a]pyridin-2-amine] | 6.42
CC(=O)n1ccc(Nc2nc3cccnn3c2-c2cc(N)nc(C)n2)n1 [Cpd 67, N-(1-acetyl-1H-pyrazol-3-yl)-3-(6-amino-2-methyl-4-pyrimidinyl)imidazo[1,2-b]pyridazin-2-amine] | 8.00
COCCOc1ccc2nc(Nc3cc[nH]n3)c(-c3cc(N)nc(C)n3)n2n1 [Cpd 69, 3-(6-amino-2-methyl-4-pyrimidinyl)-6-(2-methoxyethoxy)-N-1H-pyrazol-3-ylimidazo[1,2-b]pyridazin-2-amine] | 9.00
CNc1cc(-c2c(Nc3cc[nH]n3)nc3ccc(N4CCOCC4)nn23)nc(C)n1 [Cpd 72, 3-(2-methyl-6-(methylamino)-4-pyrimidinyl)-6-(4-morpholinyl)-N-1H-pyrazol-3-ylimidazo[1,2-b]pyridazin-2-amine] | 8.52
Cc1nc(N)cc(-c2c(Nc3cc[nH]n3)nc3ccc(OCCN4CCCC4)nn23)n1 [Cpd 73] | 7.15
Cc1nc(NC(=O)N(C)C)cc(-c2c(Nc3cc[nH]n3)nc3cccnn23)n1 [Cpd 75, 1,1-dimethyl-3-(2-methyl-6-(2-(1H-pyrazol-3-ylamino)imidazo[1,2-b]pyridazin-3-yl)-4-pyrimidinyl)urea] | 6.10
Cc1nc(NC(=O)N2CCN(C)CC2)cc(-c2c(Nc3cc[nH]n3)nc3cccnn23)n1 [Cpd 77, 4-methyl-N-(2-methyl-6-(2-(1H-pyrazol-3-ylamino)imidazo[1,2-b]pyridazin-3-yl)-4-pyrimidinyl)-1-piperazinecarboxamide] | 5.79
Cc1nc(NCC#N)cc(-c2c(Nc3cc[nH]n3)nc3cccnn23)n1 [Cpd 90] | 7.70
Cc1nc(NC(=O)CN(C)C)cc(-c2c(Nc3ccn(C)n3)nc3cccnn23)n1 [Cpd 92] | 6.74
